# Key:
# Type in all cases: in vivo
# TgCRND8 mice = TgCRND8 mice therapeutic dosing (5-6 months): Morris Water Maze
# Aβ42 = target: T1, Aβ42 (Homo sapiens, UniProt P05067); assay: TgCRND8 mice 2 month ad libitum treatment from 5 months: brain and plasma Aβ42 ELISA; settings: 2 month treatment ad libitum 10 mg/ml from 5 months of age
# T1 construct: Levels of Aβ42 in brain homogenates were assessed by ELISA; from tissue; host or cells: brain homogenate (and plasma) of TgCRND8 transgenic mice
# [1] = Orally administered tritiated-inositol uptake in plasma and brain (FIG. 16)
# Procedure: FIG. 16. Bioavailability of scyllo- (solid line) and myo-inositol (dashed line) in plasma and brain, determined using orally administered tritiated-inositol uptake studies. […] Brain levels also rose rapidly and were maximal at 8 h and 32 h, respectively.
# T1 sequence (P05067 672-713): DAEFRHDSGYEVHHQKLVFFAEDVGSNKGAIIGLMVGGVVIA
structure (smiles),measurement,setting,value
"OC1C(O)C(O)C(O)C(O)C1O (centres unmarked) [AZD-103, scyllo-inositol]",swim path lengths vs non-transgenic littermates,"TgCRND8 mice; TgCRND8 mice treated 28 days from 5 months, p=0.11",indistinguishable from non-transgenic littermates
same,behavioural performance (swim path length in the Morris Water Maze) vs untreated controls,"TgCRND8 mice; TgCRND8 mice, 28 days from 5 months, drinking water 10 mg/ml (approx. 900 mg/kg over 24 hours), p=0.01",significantly better behavioural performance
same,Plasma Aβ levels Aβ42,Aβ42,3035 ± 236 pg/mL
same,time of maximal brain levels,[1],32 h
same,time of peak plasma levels post administration,[1],12 h
